Read-outs that look alike come from different tables or passages of the source.
Tests used:
[1] = target: GDP-bound HRAS wild-type protein (Homo sapiens, UniProt P01112); assay: Binding to HRAS by surface plasmon resonance (SPR), Single Cycle Kinetics; details: for HRAS/KRAS (ratio of KD value for HRAS to KD value for KRAS) / ratio of the KD value with respect to GDP-bound HRAS wild-type protein to the KD value with respect to KRAS: SPR; for HRAS/KRAS (ratio of KD value for HRAS to KD value for KRAS): GDP-bound HRAS wild-type protein vs GDP-bound KRAS wild-type protein; for HRAS/KRAS (ratio of KD value with respect to GDP-bound HRAS wild-type protein to KD value with respect to KRAS): SPR KD ratio HRAS/KRAS, class symbols
[2] = tested on: human lung cancer strain NCI-H441;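 further: cell proliferation inhibition after four days measured by CellTiter-Glo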
[3] = target: GDP-bound NRAS wild-type protein (Homo sapiens, UniProt P01111); assay: Binding to NRAS by surface plasmon resonance (SPR), Single Cycle Kinetics; details: for NRAS/KRAS (ratio of KD value for NRAS to KD value for KRAS) / ratio of the KD value with respect to GDP-bound NRAS wild-type protein to the KD value with respect to KRAS: SPR; for NRAS/KRAS (ratio of KD value for NRAS to KD value for KRAS): GDP-bound NRAS wild-type protein vs GDP-bound KRAS wild-type protein; for NRAS/KRAS (ratio of KD value with respect to GDP-bound NRAS wild-type protein to KD value with respect to KRAS): SPR KD ratio NRAS/KRAS, class symbols
[4] = target: GDP-bound KRAS wild-type protein (Homo sapiens, UniProt P01116); assay: Binding to KRAS by surface plasmon resonance (SPR), Single Cycle Kinetics
[5] = SPR, Single Cycle Kinetics, GDP-bound KRAS wild-type protein, read-out: KRAS KD
[6] = read-out: NCI-H441 cell proliferation inhibitory activity, 50% proliferation inhibitory concentration (IC50 value), NCI-H441, four days, CellTiter-Glo
[7] = SPR, Single Cycle Kinetics, 1:1 binding model, GDP-bound KRAS wild-type protein, read-out: KRAS KD
[8] = SPR Single Cycle Kinetics, GDP-bound KRAS wild-type protein, 1:1 binding model, read-out: KRAS KD

GDP-bound HRAS wild-type protein, sequence (P01112 whole entry): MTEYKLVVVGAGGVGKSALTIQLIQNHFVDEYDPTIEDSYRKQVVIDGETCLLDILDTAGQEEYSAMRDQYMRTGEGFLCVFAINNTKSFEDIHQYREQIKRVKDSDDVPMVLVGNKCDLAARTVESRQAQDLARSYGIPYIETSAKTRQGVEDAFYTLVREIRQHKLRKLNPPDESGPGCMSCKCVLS
GDP-bound KRAS wild-type protein, sequence (P01116 whole entry): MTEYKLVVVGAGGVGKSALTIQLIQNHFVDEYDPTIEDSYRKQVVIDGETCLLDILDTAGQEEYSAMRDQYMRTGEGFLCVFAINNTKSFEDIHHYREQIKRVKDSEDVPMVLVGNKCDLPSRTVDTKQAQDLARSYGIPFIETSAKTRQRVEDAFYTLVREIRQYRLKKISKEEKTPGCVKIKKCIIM
GDP-bound NRAS wild-type protein, sequence (P01111 whole entry): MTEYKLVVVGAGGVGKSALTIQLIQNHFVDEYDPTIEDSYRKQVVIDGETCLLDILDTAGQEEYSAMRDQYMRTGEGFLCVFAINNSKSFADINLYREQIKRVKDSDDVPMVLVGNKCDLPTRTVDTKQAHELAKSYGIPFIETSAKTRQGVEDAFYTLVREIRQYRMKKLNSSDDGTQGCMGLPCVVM

Structure (SMILES)	HRAS/KRAS (ratio of KD value for HRAS to KD value for KRAS) [1]	IC50 [2]	NRAS/KRAS (ratio of KD value for NRAS to KD value for KRAS) [3]	Kd [4, 5]	HRAS/KRAS (ratio of KD value for HRAS to KD value for KRAS) ([1]; KD ratio class)	NRAS/KRAS (ratio of KD value for NRAS to KD value for KRAS) ([3]; KD ratio class)	Kd [4, 7]	also measured
CCO[C@@H]1C[C@H]2C(=O)NC3(CCC3)C(=O)N(C)[C@@H](C3CCCC3)C(=O)N(C)[C@H](C(=O)N3CCOCC3)CC(=O)N(C)[C@@H](CCOC)C(=O)N[C@@H]([C@@H](C)CC)C(=O)N(C)CC(=O)N(C)[C@H]3CCCCCN(C3=O)[C@@H](Cc3ccc(F)cc3)C(=O)N(C)CC(=O)N[C@@H](CCc3cc(F)c(C(F)(F)F)c(F)c3)C(=O)N2C1 [PP1180]	B (a compound having 3 or more and less than 10 is denoted as B)	46.9 nM	B (a compound having 3 or more and less than 10 is denoted as B)	0.17 nM	–	–	–	–
CCC[C@H]1C(=O)N[C@@H]([C@@H](C)CC)C(=O)N2CCC[C@H]2C(=O)N(C)[C@H]2C/C=C\CCN(C2=O)[C@@H](Cc2ccc(C)cc2)C(=O)N(C)CC(=O)N[C@@H](CCc2ccc(C(F)(F)F)c(OC)c2)C(=O)N2C[C@H](OCC)C[C@H]2C(=O)N(C)C2(CCC2)C(=O)N(C)[C@@H](C2CCCC2)C(=O)N(C)[C@H](C(=O)N2CCCC2)CC(=O)N1C [PP3102, (1S,4S,10S,13S,17S,20S,26S,28R,32S,38S,42Z)-20-cyclopentyl-28-ethoxy-32-[2-[3-methoxy-4-(trifluoromethyl)phenyl]ethyl]-2,14,18,21,24,36-hexamethyl-10-[(1S)-1-methylpropyl]-13-propyl-38-(p-tolylmethyl)-17-(pyrrolidine-1-carbonyl)spiro[2,8,11,14,18,21,24,30,33,36,39-undecazatetracyclo[37.5.1.0^4,8.0^26,30]pentatetracont-42-ene-23,1′-cyclobutane]-3,9,12,15,19,22,25,31,34,37,45-undecone]	A (a compound having 10 or more and less than 20 is denoted as A)	–	A (a compound having 10 or more and less than 20 is denoted as A)	0.18 nM	–	–	–	ratio of the KD value with respect to GDP-bound HRAS wild-type protein to the KD value with respect to KRAS [1]: A (a compound having 10 or more and less than 20 is denoted as A); IC50 [2, 6]: 6.7 nM; ratio of the KD value with respect to GDP-bound NRAS wild-type protein to the KD value with respect to KRAS [3]: A (a compound having 10 or more and less than 20 is denoted as A); Kd ([4]; SPR, Single Cycle Kinetics, 1:1 binding model, read-out: KD value with respect to GDP-bound KRAS wild-type protein): 0.18 nM
CC[C@H](C)[C@@H]1NC(=O)[C@H](CC)N(C)C(=O)C[C@@H](C(=O)N(C)C)N(C)C(=O)[C@H](C2CCCC2)N(C)C(=O)C2(CCC2)NC(=O)[C@@H]2CC(F)(F)CN2C(=O)[C@H](CCc2cc(F)c(C(F)(F)F)c(F)c2)NC(=O)CN(C)C(=O)[C@H](CC2CCC(F)(F)CC2)N2CC/C=C\C[C@@H](C2=O)N(C)C(=O)CN(C)C1=O [PP1448, (2S,8S,14S,20S,23S,27S,30S,36S,38Z)-20-cyclopentyl-2-[(4,4-difluorocyclohexyl)methyl]-8-[2-[3,5-difluoro-4-(trifluoromethyl)phenyl]ethyl]-27-ethyl-12,12-difluoro-N,N,4,19,22,26,32,35-octamethyl-30-[(1S)-1-methylpropyl]-3,6,9,15,18,21,25,28,31,34,42-undecaoxo-spiro[1,4,7,10,16,19,22,26,29,32,35-undecazatricyclo[34.5.1.0^10,14]dotetracont-38-ene-17,1′-cyclobutane]-23-carboxamide]	–	8.3 nM	–	–	A (a compound having 10 or more and less than 20 is denoted as A)	A (a compound having 10 or more and less than 20 is denoted as A)	0.059 nM	–
CCOC[C@H]1C(=O)N[C@@H]([C@@H](C)CC)C(=O)N(C)CC(=O)N(C)[C@H]2C/C=C\CCN(C2=O)[C@@H](Cc2ccc(C(F)(F)F)cc2)C(=O)N(C)CC(=O)N[C@@H](CCc2ccc(C(F)(F)F)c(OC)c2)C(=O)N2C[C@H](OCC)C[C@H]2C(=O)N(C)C2(CCC2)C(=O)N(C)[C@@H](C(CC)CC)C(=O)N(C)[C@H](C(=O)N(C)C)CC(=O)N1C [PP2383]	A (a compound having 10 or more and less than 20 is denoted as A)	5.2 nM	A (a compound having 10 or more and less than 20 is denoted as A)	0.12 nM	–	–	–	–
CCO[C@@H]1C[C@H]2C(=O)N(C)C3(CC(C)(C)C3)C(=O)N(C)[C@@H](C3CCCC3)C(=O)N(C)[C@H](C(=O)N(C)C)CC(=O)N(C)[C@H]3CCCCCCc4ccc(cc4)C[C@@H](C(=O)N(C)CC(=O)N[C@@H](CCc4ccc(C(F)(F)F)c(OC)c4)C(=O)N2C1)N1CC/C=C\C[C@@H](C1=O)N(C)C(=O)CN(C)C(=O)[C@H]([C@@H](C)CC)NC3=O [PP3090]	B (a compound having 3 or more and less than 10 is denoted as B)	–	A (a compound having 10 or more and less than 20 is denoted as A)	0.033 nM	–	–	–	ratio of the KD value with respect to GDP-bound HRAS wild-type protein to the KD value with respect to KRAS [1]: B (a compound having 3 or more and less than 10 is denoted as B); IC50 [2, 6]: 1.3 nM; ratio of the KD value with respect to GDP-bound NRAS wild-type protein to the KD value with respect to KRAS [3]: A (a compound having 10 or more and less than 20 is denoted as A)
CCO[C@@H]1C[C@H]2C(=O)NC3(CC(C)(C)C3)C(=O)N(C)[C@@H](C(CC)CC)C(=O)N(C)[C@H](C(=O)N(C)C)CC(=O)N(C)[C@@H](COC)C(=O)N[C@@H]([C@@H](C)CC)C(=O)N(C3CC3)CC(=O)N(C)[C@H]3C/C=C\CCN(C3=O)[C@@H](CC3CCC(F)(F)CC3)C(=O)N(C)CC(=O)N[C@@H](CCc3ccc(Cl)c(Cl)c3)C(=O)N2C1 [PP2569]	–	185 nM	–	–	–	–	–	HRAS/KRAS (ratio of KD value with respect to GDP-bound HRAS wild-type protein to KD value with respect to KRAS) [1]: A (a compound having 10 or more and less than 20 is denoted as A); NRAS/KRAS (ratio of KD value with respect to GDP-bound NRAS wild-type protein to KD value with respect to KRAS) [3]: AA (a compound having 20 or more is denoted as AA); Kd [4, 8]: 2.8 nM
CCO[C@@H]1C[C@H]2C(=O)NC3(CC(C)(C)C3)C(=O)N(C)[C@@H](C3CCCC3)C(=O)N(C)[C@H](C(=O)N(C)C)CC(=O)N(C)[C@@H](CC)C(=O)N[C@@H]([C@@H](C)CC)C(=O)N(C)CC(=O)N(C)[C@H]3C/C=C\CCN(C3=O)[C@@H](Cc3ccc(C(F)(F)F)cc3)C(=O)N(C)CC(=O)N[C@@H](CCc3cc(F)c(C(F)(F)F)c(F)c3)C(=O)N2C1 [PP1275, (2S,8S,12R,14S,20S,23S,27S,30S,36S,38Z)-20-cyclopentyl-8-[2-[3,5-difluoro-4-(trifluoromethyl)phenyl]ethyl]-12-ethoxy-27-ethyl-N,N,3′,3′,4,19,22,26,32,35-decamethyl-30-[(1S)-1-methylpropyl]-3,6,9,15,18,21,25,28,31,34,42-undecaoxo-2-[[4-(trifluoromethyl)phenyl]methyl]spiro[1,4,7,10,16,19,22,26,29,32,35-undecazatricyclo[34.5.1.0^10,14]dotetracont-38-ene-17,1′-cyclobutane]-23-carboxamide]	–	4.9 nM	–	–	A (a compound having 10 or more and less than 20 is denoted as A)	A (a compound having 10 or more and less than 20 is denoted as A)	0.047 nM	–
CC[C@H](C)[C@@H]1NC(=O)[C@H](COC)N(C)C(=O)C[C@@H](C(=O)N2CCCCC2)N(C)C(=O)[C@H](C2CCCC2)N(C)C(=O)C2(CC(C)(C)C2)NC(=O)[C@@H]2C[C@@H](OC(C)C)CN2C(=O)[C@H](CCc2cc(F)c(C(F)(F)F)c(F)c2)NC(=O)CN(C)C(=O)[C@H](Cc2ccc(C)cc2)N2CC/C=C\C[C@@H](C2=O)N(C)C(=O)CN(C)C1=O [PP2669]	–	18.7 nM	–	–	–	–	–	HRAS/KRAS (ratio of KD value with respect to GDP-bound HRAS wild-type protein to KD value with respect to KRAS) [1]: A (a compound having 10 or more and less than 20 is denoted as A); NRAS/KRAS (ratio of KD value with respect to GDP-bound NRAS wild-type protein to KD value with respect to KRAS) [3]: A (a compound having 10 or more and less than 20 is denoted as A); Kd [4, 8]: 0.29 nM
CCO[C@@H]1C[C@H]2C(=O)NC3(CC(C)(C)C3)C(=O)N(C)[C@@H](C(CC)CC)C(=O)N(C)[C@H](C(=O)N(C)C)CC(=O)N(C)[C@@H](COC)C(=O)N[C@@H]([C@@H](C)CC)C(=O)N(C)CC(=O)N(C)[C@H]3C/C=C\CCN(C3=O)[C@@H](CC3CCCCC3)C(=O)N(C)CC(=O)N[C@@H](CCc3ccc(C(F)(F)F)c(OC)c3)C(=O)N2C1 [PP2452]	A (a compound having 10 or more and less than 20 is denoted as A)	43.4 nM	A (a compound having 10 or more and less than 20 is denoted as A)	1.5 nM	–	–	–	–
CCO[C@@H]1C[C@H]2C(=O)NC3(CCC3)C(=O)N(C)[C@@H](C(CC)CC)C(=O)N(C)[C@H](C(=O)N(C)C)CC(=O)N(C)[C@@H](CC)C(=O)N[C@@H]([C@@H](C)CC)C(=O)N(C)CC(=O)N(C)[C@H]3C/C=C\CCN(C3=O)[C@@H](Cc3ccc(C(F)(F)F)cc3)C(=O)N(C)CC(=O)N[C@@H](CCc3ccc4sccc4c3)C(=O)N2C1 [PP1223]	–	117 nM	–	–	A (a compound having 10 or more and less than 20 is denoted as A)	AA (a compound having 20 or more is denoted as AA)	1.2 nM	–

— patent publication US20240158446A1, “CYCLIC COMPOUND HAVING SELECTIVE INHIBITORY ACTION ON KRAS OVER HRAS AND NRAS” (CHUGAI SEIYAKU KABUSHIKI KAISHA, priority 2021, published 2024)
